Patent US20060013866A1, “Transdermal drug delivery formulations with optimal amounts of vasodilators therein” (priority 2004, published 2006)
Blank lines part the entries; values can stand above or below the compound they belong to.

Legend:
Type in all cases: in vivo
[1] = Topical ibuprofen vehicle with tocopherol nicotinate applied to rabbits, ibuprofen in plasma over three hours
Method: (§1) Test formulations containing 15% ibuprofen-sodium salt, 5% oleic acid, 10% menthol, 5% propylene glycol, 10% dimethylacetamide, 1% decylmethylsulfoxide, 1% u-care, varying amounts of tocopherol nicotinate in the range of 0-1%, and 52-53% deionized water were each blended in a beaker with a mechanical mixer and heated to 40° C. for 30 minutes until clear, then cooled to room temperature.
(§2) 150 mg of sodium salt-ibuprofen was formulated with a 1-gram dose of the above lipid-based vehicle formulations containing the increasing amounts of the vasodilator tocopherol nicotinate. The Ibuprofen vehicle was topically applied to rabbits and blood samples were taken over a three-hour period. Plasma was prepared and analyzed for the amount of ibuprofen present in the blood. The data represents the integrated value of ibuprofen concentration in the blood for the three hour time period for each concentration of tocopherol nicotinate.

[2] = Topical ibuprofen vehicle with papaverine applied to rabbits, ibuprofen in plasma over three hours; details: 150 mg sodium salt-ibuprofen
Method: as §1, with “papaverine ranging from” for “tocopherol nicotinate in the range of”
as §2, with “with” for “with a 1-gram dose of”, “formulatiosn” for “formulations”, “containing” for “containing the”, “papaverine.” for “tocopherol nicotinate.”

[3] = Topical ibuprofen vehicle with tolazoline applied to rabbits, ibuprofen in plasma over three hours; details: 150 mg sodium salt-ibuprofen
Method: as §1, with “ibuprofen- sodium” for “ibuprofen-sodium”, “tolazoline ranging from 0-0.1%,” for “tocopherol nicotinate in the range of 0-1%,”, “52.9-53%” for “52-53%”
as §2, with “with” for “with a 1-gram dose of”, “formulatiosn” for “formulations”, “containing” for “containing the”, “tolazoline.” for “tocopherol nicotinate.”

[4] = Maximal blood flow stimulated by vasodilator, laser Doppler perfusion imager
Description: The present invention also relates to the methods needed to obtain the optimal transdermal delivery of drugs as a function of enhanced delivery resulting from the presence of vasodilator chemicals relates to the topical application of therapeutic or diagnostic agents for the systemic or localized distribution of therapeutic or diagnostic agents for the purpose of treating or detecting diseases and medical conditions. The topically applied agents may be administered at different locations on the human body to achieve access to the circulatory system. The inclusion of chemical vasodilator facilitates the transportation of the therapeutic and diagnostic agents. Chemical vasodilators act through a mechanism-specific basis resulting in a stimulation or inhibition of the uptake of the therapeutic or diagnostic agents. […] Transdermal delivery of the drug molecule as a function of the vasodilator is evaluated in a living suitable animal model or human test subject, topically applying the test formulations, which contain varying amounts of vasodilator. […] Effective transdermal drug delivery is measured by determining the amount of drug present in the blood plasma as a function of time following the single application. […]
Maximal blood flow stimulated by the vasodilator tolazoline was measured using a laser Doppler perfusion imager.

integrated value of ibuprofen concentration in the blood (0-3 hr) ([1]; 150 mg sodium salt-ibuprofen in 1-gram dose, Control (no tocopherol nicotinate)): 1030 ng·h/mL
integrated value of ibuprofen concentration in the blood (0-3 hr) ([1]; 150 mg sodium salt-ibuprofen, tocopherol nicotinate 0.00010%): 3980 ng·h/mL
integrated value of ibuprofen concentration in the blood (0-3 hr) ([1]; 150 mg sodium salt-ibuprofen, tocopherol nicotinate 0.00025%): 9480 ng·h/mL
integrated value of ibuprofen concentration in the blood (0-3 hr) ([1]; 150 mg sodium salt-ibuprofen, tocopherol nicotinate 0.00050%): 3120 ng·h/mL
integrated value of ibuprofen concentration in the blood (0-3 hr) ([1]; 150 mg sodium salt-ibuprofen, tocopherol nicotinate 0.0010%): 5080 ng·h/mL
integrated value of ibuprofen concentration in the blood (0-3 hr) ([1]; 150 mg sodium salt-ibuprofen, tocopherol nicotinate 0.0100%): 5840 ng·h/mL
integrated value of ibuprofen concentration in the blood (0-3 hr) ([1]; 150 mg sodium salt-ibuprofen, tocopherol nicotinate 0.100%): 4300 ng·h/mL
integrated value of ibuprofen concentration in the blood (0-3 hr) ([1]; 150 mg sodium salt-ibuprofen, tocopherol nicotinate 1.000%): 4400 ng·h/mL
integrated value of ibuprofen concentration in the blood (0-3 hr) ([2]; Control (no papaverine)): 1030 ng·h/mL
integrated value of ibuprofen concentration in the blood (0-3 hr) ([2]; papaverine 0.00010%): 5120 ng·h/mL
integrated value of ibuprofen concentration in the blood (0-3 hr) ([2]; papaverine 0.00025%): 4470 ng·h/mL
integrated value of ibuprofen concentration in the blood (0-3 hr) ([2]; papaverine 0.00050%): 8370 ng·h/mL
integrated value of ibuprofen concentration in the blood (0-3 hr) ([2]; papaverine 0.0010%): 7620 ng·h/mL
integrated value of ibuprofen concentration in the blood (0-3 hr) ([2]; papaverine 0.0100%): 5720 ng·h/mL
integrated value of ibuprofen concentration in the blood (0-3 hr) ([2]; papaverine 0.100%): 4230 ng·h/mL
integrated value of ibuprofen concentration in the blood (0-3 hr) ([2]; papaverine 1.000%): 6160 ng·h/mL
integrated value of ibuprofen concentration in the blood (0-3 hr) ([3]; Control (no tolazoline)): 1030 ng·h/mL
integrated value of ibuprofen concentration in the blood (0-3 hr) ([3]; tolazoline 0.0010%): 3900 ng·h/mL
integrated value of ibuprofen concentration in the blood (0-3 hr) ([3]; tolazoline 0.0050%): 5240 ng·h/mL
integrated value of ibuprofen concentration in the blood (0-3 hr) ([3]; tolazoline 0.0100%): 5660 ng·h/mL
integrated value of ibuprofen concentration in the blood (0-3 hr) ([3]; tolazoline 0.0500%): 3530 ng·h/mL
integrated value of ibuprofen concentration in the blood (0-3 hr) ([3]; tolazoline 0.100%): 4530 ng·h/mL
Compound: CC(C)Cc1ccc(C(C)C(=O)O)cc1 (centres unmarked) [Ibuprofen, ibuprofen]

Compound: c1ccc(CC2=NCCN2)cc1 [tolazoline]
concentration of tolazoline at which the maximum blood flow was achieved [4]: 0.5%
